“Also recorded” adds a separate entry of the source. Like-named read-outs stand apart in the source and are kept apart here.
Columns and labels:
[1] = target: T1, Pyruvate decarboxylase from Saccharomyces cerevisiae (Saccharomyces cerevisiae, UniProt P06169); test: Inactivation of pyruvate decarboxylase (PDC); type: biochemical
T1 construct: made in house; host or cells: E. coli
T1 sequence (P06169 2-563 limits assumed): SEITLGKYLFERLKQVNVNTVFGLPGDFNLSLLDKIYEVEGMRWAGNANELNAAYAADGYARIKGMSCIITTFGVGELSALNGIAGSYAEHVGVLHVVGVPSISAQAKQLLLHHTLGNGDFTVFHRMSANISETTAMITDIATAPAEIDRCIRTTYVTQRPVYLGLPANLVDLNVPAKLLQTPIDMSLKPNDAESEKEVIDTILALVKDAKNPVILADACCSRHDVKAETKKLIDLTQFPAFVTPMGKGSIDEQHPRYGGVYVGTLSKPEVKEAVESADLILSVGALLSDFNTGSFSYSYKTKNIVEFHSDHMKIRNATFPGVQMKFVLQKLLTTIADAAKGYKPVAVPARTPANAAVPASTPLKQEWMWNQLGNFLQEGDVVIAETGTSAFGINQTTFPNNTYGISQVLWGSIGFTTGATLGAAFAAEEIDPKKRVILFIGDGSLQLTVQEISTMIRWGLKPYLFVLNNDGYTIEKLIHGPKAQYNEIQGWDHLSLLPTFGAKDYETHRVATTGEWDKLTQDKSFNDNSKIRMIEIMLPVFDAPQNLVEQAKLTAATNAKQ
Description: Pyruvate decarboxylase from Saccharomyces cerevisiae was overexpressed in E. coli (Baburina et al., 1994), then purified according to Farrenkopf & Jordan (1992). It was assayed spectrophotometrically by coupling to alcohol dehydrogenase (Holzer et al., 1960).

[2] = target: PDHc (Escherichia coli, UniProt P0AFG8); test: Inactivation of 1-lip and 3-lip PDH complexes by 2-oxo-3-alkynoic acids (overall NADH assay); type: biochemical, E. coli; parameters: made in house; host or cells: E. coli JRG1342 (PDHc null) with Ptac plasmid pGS501 (1-lip) or pGS523 (3-lip); conditions: for kapp, slower phase of inactivation: PDHc
From the text: Bacterial strains and plasmids for PDHc. Derivatives of the PDHc null strain, E. coli JRG1342 contained Ptac expression plasmids encoding PDHc with E2 chains bearing three lipoyl domains (3-lip PDHc; pGS523, the wild type parental complex), or a single lipoyl domain in each E2 subunit (1-lip PDHc; pGS501), and variant 1-lip PDH complexes with mutations in the E1 gene leading to C259S (pGS457) and C259N (pGS596) substitutions (Machado et al., 1992; Machado, 1993).
Purification of PDHc. Cultures for purification of 1-lip and 3-lip PDH complexes were grown at 37° C. in LB medium containing glucose (0.2%) and ampicillin (50 μg/mL). The PDH complexes were induced by adding IPTG to 60 μM as described by Russell et al. (1992). Cells were disrupted by ultrasonic treatment after preincubation with lysozyme (0.6 mg/mL final concentration) for 15 min. The PDHc was sedimented by ultracentrifugation (100,000×g for 3 h) and further purified by chromatography on a
Sephacryl S-400 HR column. Fractions containing PDHc were pooled and treated with ammonium sulfate to 70% saturation. The enzyme was dissolved in buffer A (20 mM potassium phosphate, pH 7.8, 2 mM Na2 EDTA, 1 mM PMSF, and 1 mM benzamidine.HCl) then dialyzed against the same buffer. The PDH complexes were stored in buffer A at -20° C.
(§1) Activity and related measurements on PDHc. The overall enzymatic reaction of the PDH complex was assayed using a Varian DMS 300 spectrophotometer or the Cobas Bio (Roche Diagnostics, Somerville, N.J.) automated centrifugal analyzer, monitoring the pyruvate-dependent reduction of NAD^+ at 340 nm. The reaction medium contained in 1 mL (DMS 300) or 0.25 mL (Cobas-Bio) test volume: 0.1 M Tris-HCl, pH 8.0; 1 mM MgCl2; 2 mM sodium pyruvate; 2.5 mM NAD^+; 0.052-0.2 mM coenzyme A; 0.2 mM ThDP; and 2.6 mM DTT at 27° C. The reaction was initiated either by adding enzyme to a mixture of all other components, or by adding CoA.
(§2) One unit of activity is defined as the amount of NADH produced (μmol) per min per mg protein. The activity of resolved E1 was measured after reconstitution with excess E2-E3 subcomplex using the NADH assay for PDHc activity.
(§3) Inactivation of 1-lip and 3-lip PDH complexes and resolved E1 component by 2-oxo-3-alkynoic acids. Intact 1-lip or 3-lip PDH complexes (0.050-0.1 mg) or resolved E1 component (0.05-0.09 mg) were incubated in the dark with 5 mM MgCl2, […] of 2-oxo-3-alkynoic acids in 20 mM KH2 PO4 buffer, pH 7.5 at room temperature in a total volume 0.5 mL. The initial activity (100%) was assayed prior to the addition of 2-oxo-3-alkynoic acids. Samples (50 μL) were withdrawn periodically and diluted into 1 mL of assay solution, containing all components necessary for assay of the overall activity. The activity of untreated enzyme was stable during the time of inactivation.

[3] = target: T2, Pyruvate oxidase from Lactobacillus plantarum (Lactiplantibacillus plantarum, UniProt P37063); test: Inactivation of pyruvate oxidase (POX); type: biochemical; conditions: for kinact/KI: read-out: kc/Ki,c (converted)
T2 construct: purchased Boehringer Mannheim (a gift, not bought)
T2 sequence (P37063 1-603): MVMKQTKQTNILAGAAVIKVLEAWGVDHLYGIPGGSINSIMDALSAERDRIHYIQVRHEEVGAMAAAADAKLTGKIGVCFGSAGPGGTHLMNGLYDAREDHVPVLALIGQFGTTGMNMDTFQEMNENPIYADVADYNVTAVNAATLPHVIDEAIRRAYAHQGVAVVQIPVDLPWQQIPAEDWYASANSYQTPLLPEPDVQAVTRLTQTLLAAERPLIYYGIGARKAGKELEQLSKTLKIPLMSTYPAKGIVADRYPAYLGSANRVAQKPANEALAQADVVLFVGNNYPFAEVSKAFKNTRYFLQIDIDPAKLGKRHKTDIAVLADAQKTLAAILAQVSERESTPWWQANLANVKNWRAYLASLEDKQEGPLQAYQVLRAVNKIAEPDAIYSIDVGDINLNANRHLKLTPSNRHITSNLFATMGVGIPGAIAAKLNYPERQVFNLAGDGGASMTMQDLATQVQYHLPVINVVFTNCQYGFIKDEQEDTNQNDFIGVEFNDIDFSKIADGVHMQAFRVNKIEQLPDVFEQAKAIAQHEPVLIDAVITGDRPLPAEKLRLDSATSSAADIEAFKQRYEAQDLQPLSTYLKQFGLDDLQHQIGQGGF
Description: Pyruvate oxidase from Lactobacillus plantarum was a gift from Boehringer Mannheim and was assayed according to the manufacturer's instructions at 25° C. by measuring the rate of 4-quinonimine production from H2 O2, 3,5-dichlorophenolsulfonic acid and 4-aminoantipyrine in the presence of horseradish peroxidase, at 546 nm, using a Cobas-Bio (Roche Diagnostics, Somerville, N.J.) automated centrifugal analyzer. The assay reaction mixture (total vol. 0.25 mL) contained: 40 mM sodium pyruvate; 50 mM potassium phosphate buffer, pH 6.5 with 10% (v/v) glycerol; 6.8 mM 3,5-dichlorophenolsulfonic acid; 0.03% of 4-aminoantipyrine; and 5u/mL of horseradish peroxidase. The reaction was initiated by adding POX.

[4] = target: T3, PDC from Saccharomyces cerevisiae (Saccharomyces cerevisiae, UniProt P06169); conditions: cited from earlier work; for inhibition of brewer's yeast PDC (in words): Chiu & Jordan, 1994
T3 sequence (P06169 2-563 limits assumed): T1 sequence (P06169 2-563 limits assumed)

[5] = target: PDHc from E. coli (Escherichia coli, UniProt P0AFG8); conditions: cited from earlier work
[6] = target: T4, POX from Lactobacillus plantarum (Lactiplantibacillus plantarum, UniProt P37063); conditions: cited from earlier work
T4 sequence (P37063 1-603): T2 sequence (P37063 1-603)

[7] = target: T5, resolved E1 (Escherichia coli, UniProt P0AFG8); test: Inactivation of resolved E1 component (activity after reconstitution with E2-E3 subcomplex); type: biochemical, E. coli; conditions: for effect on catalytic activity of resolved E1 (in words): data not shown
T5 construct: made in house; host or cells: resolved from PDHc expressed in E. coli JRG1342
Description: Resolution of the E1 component from PDHc. […] PDHc was dialyzed against 50 mM Tris buffer, pH 9.0, containing 0.1 mM benzamidine.HCl, 0.15 M NaCl, 0.1 mM PMSF for 2 h, before applying to a column equilibrated and eluted with the same buffer.
as §1, §2, §3

[8] = target: T5, resolved E1; conditions: read-out: Ki, reversible inhibition of resolved E1; dichorophenolindophenol assay, Lowe & Perham 1984; cited from earlier work
[9] = target: T5, resolved E1; conditions: read-out: Ki E1; calculated from data of Flournoy and Frey (1989); cited from earlier work
[10] = target: T6, E1 (Escherichia coli, UniProt P0AFG8); test: Fluorescence measurements on binding to E1; parameters: species or system E. coli; conditions: 2 mM
T6 construct: made in house; host or cells: resolved from PDHc expressed in E. coli JRG1342
Description: Fluorescence measurements on the binding of 2-oxo-3-butynoic acid to E1. The fluorescence spectrum of apo-E1 (enzyme having no activity in the absence of ThDP) was measured using the SLM8100 spectrofluorimeter at 25° C. The excitation wavelength was 295 nm and the emission spectrum, presumably due to tryptophan, was recorded in the 300-450 nm range in a 1 mL or 3 mL quartz cuvette. The concentration of apo-E1 was 0.05-0.175 mg/mL in 20 mM KH2 PO4 buffer, pH 7.5. The excitation and emission monochromator slit widths were 4 nm. The V.3.0 software and KaleidaGraph computer program were used for data processing. The emission maximum for tryptophan (λ=335 nm) was determined by fitting the points from the peak using the KaleidaGraph computer program.

Structure (SMILES): CC#CC(=O)C(=O)O [2-oxo-3-pentynoic acid, 2-Oxo-3-pentynoic acid]
- inhibition / inactivation of PDC (in words) [1]: inhibit
- Ki [2]: 276 µM
- partial protection by pyruvate on slow phase of inactivation ([2]; 1-lip PDHc, 3 mM inhibitor, 5 mM pyruvate, 1 mM ThDP): 21%
- kapp, slower phase of inactivation ([2]; 3 mM inhibitor): 0.048 min⁻¹
- kapp, slower phase of inactivation ([2]; 4 mM inhibitor): 0.022 min⁻¹
- kinact/KI ([2]; pH 7.5, read-out: ki/Ki PDHc): 25.3 M⁻¹ s⁻¹
- activity at 3000 µM ([2]; read-out: residual activity after 26 min of inactivation, 1-lip PDHc, 3 mM inhibitor, absence of pyruvate): 14%
- activity at 3000 µM ([2]; read-out: residual activity after 26 min of inactivation, 1-lip PDHc, 3 mM inhibitor, presence of 5 mM pyruvate): 35%
- inhibition / inactivation of POX (in words) [3]: inhibit
- saturation by inhibitor ([3]; POX): no
- kinact/KI ([3]; POX, from linear portion at high inhibitor concentrations (d)): 0.207 M⁻¹ s⁻¹
- kinact/KI ([3]; POX, from linear portion at low inhibitor concentrations (c)): 0.0473 M⁻¹ s⁻¹

Structure (SMILES): O=C(O)C(=O)C=Cc1ccccc1 [2-oxo-4-phenyl-3-butenoic acid, reference compound]
- inhibition of brewer's yeast PDC (in words) [4]: inhibited
- inhibition / inactivation of PDHc (in words) [2]: no effect

Structure (SMILES): O=C(O)C(=O)C#Cc1ccccc1 [2-oxo-4-phenyl-3-butynoic acid, reference compound]
- inhibition of brewer's yeast PDC (in words) [4]: inhibited
- inhibition / inactivation of PDHc (in words) [2]: no effect; also recorded: no inhibition

Structure (SMILES): CCC(=O)C(=O)O [2-oxobutanoic acid]
- Km ([5]; Bisswanger (1981), read-out: Km (substrate of E. coli PDHc)): 3 mM
- substrate-like activity with POX ([6]; manufacturer's information): fails to show substrate-like activity

Structure (SMILES): O=C(O)c1cc(SSc2ccc([N+](=O)[O-])c(C(=O)O)c2)ccc1[N+](=O)[O-] [5,5'-dithiobis-(2-nitrobenzoic acid), reference compound]
- effect on catalytic activity of resolved E1 (in words) [7]: not significantly affected

Structure (SMILES): O=C(O)C(=O)/C=C/c1ccc(Cl)cc1 [E-4(4-chlorophenyl)-2-oxo-3-butenoic acid, reference compound]
- Ki ([1]; PDC, read-out: Ki): 700 µM
- kinact ([1]; PDC, read-out: first order rate constant of inactivation (ki) (converted)): 0.00633 s⁻¹
- kinact/KI ([1]; PDC, read-out: ki/Ki (converted)): 9 M⁻¹ s⁻¹

Structure (SMILES): CC(=O)[PH](=O)O [acetylphosphinate]
- Ki ([4]; PDC from Saccharomyces cerevisiae): 470 µM
- Ki ([5]; PDHc from E. coli): 0.15 µM
- Ki ([6]; POX from Lactobacillus plantarum): 50 µM

Structure (SMILES): O=C(O)C(=O)CBr [bromopyruvate]
- Ki [8]: 90 ± 15 µM

Structure (SMILES): O=C(O)C(=O)CF [fluoropyruvate]
- Ki [9]: 28 µM
- Ki ([5]; calculated from data of Flournoy and Frey (1989), read-out: Ki PDHc): 33 µM

Structure (SMILES): CSS(C)(=O)=O [methylmethanethiolsulfonate, reference compound]
- effect on catalytic activity of resolved E1 (in words) [7]: not significantly affected

Structure (SMILES): O=C(O)c1cc[c]([Hg][Cl])cc1 [p-chloromercuribenzoate, reference compound]
- molar excess required to inactivate E1 [7]: 300 fold molar excess

Structure (SMILES): CC(=O)C(=O)O [pyruvate, reference compound]
- decrease of fluorescence intensity of E1 ([10]; absence of ThDP): 21%
- decrease of fluorescence intensity of E1 ([10]; with ThDP 0.2 mM and MgCl2 1 mM): about 15%

From patent US6204220A, “Substituted 2-oxo-3-alkynoic acids and methods of use thereof” (Rutgers, The State University of New Jersey, priority 1999, dated 2001)
